{"source": "patent US8735364B2", "about": "“Antisense modulation of apolipoprotein B expression” (Genzyme Corporation, priority 2001, dated 2014)", "type_in_all_cases": "in vivo, mouse", "key": {"[1]": {"test": "Body, spleen, liver and fat pad weight, high fat fed mice, 6 week study", "conditions": "compared to saline-treated controls", "description": "(§1) Male C57BL/6 mice (n=8) receiving a high fat diet (60% kcal fat) were evaluated over the course of 6 weeks for the effects of treatment with the antisense oligonucleotide, ISIS 147764. Control animals received saline treatment (50 mg/kg). A subset of animals received a daily oral dose (20 mg/kg) atorvastatin calcium (Lipitor®, Pfizer Inc.). All mice, except atorvastatin-treated animals, were dosed intraperitoneally every three days (twice a week), after fasting overnight, with 5, 25, 50 mg/kg ISIS 147764 (SEQ ID No: 109) or saline (50 mg/kg) for six weeks. Serum cholesterol and lipoproteins were analyzed at 0, 2 and 6 week interim timepoints. At study termination, animals were sacrificed 48 hours after the final injections and evaluated for levels of target mRNA levels in liver, cholesterol, lipoprotein, triglyceride, liver enzyme (AST and ALT) and serum glucose levels as well as body, liver, spleen and fat pad weights.\n(§2) Male C57BL/6 mice (n=8) receiving a high fat diet (60% kcal fat) were evaluated over the course of 6 weeks for the effects of ISIS 147764 on body, spleen, liver and fat pad weight. Control animals received saline treatment (50 mg/kg). Mice were dosed intraperitoneally every three days (twice a week), after fasting overnight, with 5, 25, 50 mg/kg ISIS 147764 (SEQ ID No: 109) or saline (50 mg/kg) for six weeks.\nAt study termination, animals were sacrificed 48 hours after the final injections and body, spleen, liver and fat pad weights were measured. Values are expressed as percent change in body weight or ogan weight compared to the saline-treated control animals. Data from mice treated with atorvastatin at a daily dose of 20 mg/kg are also shown in the table Negative values indicated a decrease in weight."}, "[2]": {"test": "Serum glucose levels, high fat fed mice, 6 week study", "conditions": "study termination, saline control 300 mg/dL", "description": "as §1\nas §2, with “serum glucose levels.” for “body, spleen, liver and fat pad weight.”\nAt study termination, animals were sacrificed 48 hours after the final injections and evaluated for serum glucose levels. […] Mice treated with atorvastatin at a daily oral dose of 20 mg/kg had serum glucose levels of 215 mg/dL."}, "[3]": {"test": "Liver enzyme levels in ApoE knockout mice", "conditions": "for Liver Enzyme Levels AST: Control 55; for Liver Enzyme Levels ALT: Control 56", "from_the_text": "Female ApoE knockout mice ranged in age from 5 to 7 weeks and were placed on a normal diet for 2 weeks before study initiation. ApoE knockout mice were then fed ad libitum a 60% fat diet, with 0.15% added cholesterol to induce dyslipidemia and obesity. […]\nAt study termination and forty eight hours after the final injections, animals were sacrificed and evaluated for target mRNA levels in liver by RT-PCR methods verified by Northern Blot analysis, glucose levels, cholesterol and lipid levels by HPLC separation methods and triglyceride and liver enzyme levels (perfomed by LabCorp Preclinical Services; San Diego, Calif.). Data are normalized to saline controls."}, "[4]": {"test": "Lipoprotein (VLDL, LDL, HDL) levels, high fat fed mice, 6 week study", "conditions": "for HDL Percent Inhibition / LDL Percent Inhibition / VLDL Percent Inhibition: negative = increase", "description": "as §1\nas §2, with “lipoprotein (VLDL, LDL” for “body, spleen, liver”, “HDL) levels.” for “fat pad weight.”\nValues in the table are expressed as percent inhibition and are normalized to the saline control. Negative values indicate an observed increase in lipoprotein levels."}, "[5]": {"test": "Cholesterol, lipoprotein, triglyceride and serum glucose levels, lean vs high fat fed C57BL/6 mice", "conditions": "50 mg/kg i.p. every three days, six weeks", "description": "Male C57BL/6 mice were divided into two matched groups; (1) wild-type control animals (lean animals) and (2) animals receiving a high fat diet (60% kcal fat). Control animals received saline treatment and were maintained on a normal rodent diet. After overnight fasting, mice from each group were dosed intraperitoneally every three days with saline or 50 mg/kg ISIS 147764 (SEQ ID No: 109) for six weeks. At study termination and forty eight hours after the final injections, animals were sacrificed and evaluated for target mRNA levels in liver, cholesterol and triglyceride levels, liver enzyme levels and serum glucose levels."}}, "data": [{"sequence": "GTCCCTGAAGATGTCAATGC (2'-MOE gapmer with phosphorothioates, pattern not given here) [ISIS 147764, 2′-MOE gapmer phosphorothioate oligonucleotide to mouse apolipoprotein B]", "values": [{"measurement": "Fat pad weight Percent Change", "setting": "[1]; 5 mg/kg", "value": 10, "unit": "%"}, {"measurement": "Liver weight Percent Change", "setting": "[1]; 5 mg/kg", "value": 18, "unit": "%"}, {"measurement": "Spleen weight Percent Change", "setting": "[1]; 5 mg/kg", "value": 10, "unit": "%"}, {"measurement": "Total Body Wt. Percent Change", "setting": "[1]; 5 mg/kg", "value": 5, "unit": "%"}, {"measurement": "Fat pad weight Percent Change", "setting": "[1]; 25 mg/kg", "value": 6, "unit": "%"}, {"measurement": "Liver weight Percent Change", "setting": "[1]; 25 mg/kg", "value": 70, "unit": "%"}, {"measurement": "Spleen weight Percent Change", "setting": "[1]; 25 mg/kg", "value": 10, "unit": "%"}, {"measurement": "Total Body Wt. Percent Change", "setting": "[1]; 25 mg/kg", "value": 5, "unit": "%"}, {"measurement": "Fat pad weight Percent Change", "setting": "[1]; 50 mg/kg", "value": "−47", "unit": "%"}, {"measurement": "Liver weight Percent Change", "setting": "[1]; 50 mg/kg", "value": 80, "unit": "%"}, {"measurement": "Spleen weight Percent Change", "setting": "[1]; 50 mg/kg", "value": 46, "unit": "%"}, {"measurement": "Total Body Wt. Percent Change", "setting": "[1]; 50 mg/kg", "value": "−4", "unit": "%"}, {"measurement": "serum glucose levels", "setting": "[2]; 5 mg/kg", "value": 225, "unit": "mg/dL"}, {"measurement": "serum glucose levels", "setting": "[2]; 25 mg/kg", "value": 190, "unit": "mg/dL"}, {"measurement": "serum glucose levels", "setting": "[2]; 50 mg/kg", "value": 180, "unit": "mg/dL"}, {"measurement": "changes in liver enzyme levels", "setting": "[3]", "value": "No significant changes"}, {"measurement": "Liver Enzyme Levels AST", "setting": "[3]; 5 mg/kg", "value": 50, "unit": "IU/L"}, {"measurement": "Liver Enzyme Levels ALT", "setting": "[3]; 5 mg/kg", "value": 48, "unit": "IU/L"}, {"measurement": "Liver Enzyme Levels AST", "setting": "[3]; 25 mg/kg", "value": 60, "unit": "IU/L"}, {"measurement": "Liver Enzyme Levels ALT", "setting": "[3]; 25 mg/kg", "value": 59, "unit": "IU/L"}, {"measurement": "Liver Enzyme Levels AST", "setting": "[3]; 50 mg/kg", "value": 85, "unit": "IU/L"}, {"measurement": "Liver Enzyme Levels ALT", "setting": "[3]; 50 mg/kg", "value": 87, "unit": "IU/L"}, {"measurement": "HDL Percent Inhibition", "setting": "[4]; 5 mg/kg, 0 weeks", "value": 0, "unit": "%"}, {"measurement": "LDL Percent Inhibition", "setting": "[4]; 5 mg/kg, 0 weeks", "value": 2, "unit": "%"}, {"measurement": "VLDL Percent Inhibition", "setting": "[4]; 5 mg/kg, 0 weeks", "value": 0, "unit": "%"}, {"measurement": "HDL Percent Inhibition", "setting": "[4]; 5 mg/kg, 2 weeks", "value": 5, "unit": "%"}, {"measurement": "LDL Percent Inhibition", "setting": "[4]; 5 mg/kg, 2 weeks", "value": "−30", "unit": "%"}, {"measurement": "VLDL Percent Inhibition", "setting": "[4]; 5 mg/kg, 2 weeks", "value": 25, "unit": "%"}, {"measurement": "HDL Percent Inhibition", "setting": "[4]; 5 mg/kg, 6 weeks", "value": 10, "unit": "%"}, {"measurement": "LDL Percent Inhibition", "setting": "[4]; 5 mg/kg, 6 weeks", "value": "−10", "unit": "%"}, {"measurement": "VLDL Percent Inhibition", "setting": "[4]; 5 mg/kg, 6 weeks", "value": 10, "unit": "%"}, {"measurement": "HDL Percent Inhibition", "setting": "[4]; 25 mg/kg, 0 weeks", "value": 0, "unit": "%"}, {"measurement": "LDL Percent Inhibition", "setting": "[4]; 25 mg/kg, 0 weeks", "value": 0, "unit": "%"}, {"measurement": "VLDL Percent Inhibition", "setting": "[4]; 25 mg/kg, 0 weeks", "value": 0, "unit": "%"}, {"measurement": "HDL Percent Inhibition", "setting": "[4]; 25 mg/kg, 2 weeks", "value": 10, "unit": "%"}, {"measurement": "LDL Percent Inhibition", "setting": "[4]; 25 mg/kg, 2 weeks", "value": 10, "unit": "%"}, {"measurement": "VLDL Percent Inhibition", "setting": "[4]; 25 mg/kg, 2 weeks", "value": 30, "unit": "%"}, {"measurement": "HDL Percent Inhibition", "setting": "[4]; 25 mg/kg, 6 weeks", "value": 45, "unit": "%"}, {"measurement": "LDL Percent Inhibition", "setting": "[4]; 25 mg/kg, 6 weeks", "value": 55, "unit": "%"}, {"measurement": "VLDL Percent Inhibition", "setting": "[4]; 25 mg/kg, 6 weeks", "value": "−30", "unit": "%"}, {"measurement": "lowering all categories of serum lipoproteins investigated, compared with atorvastatin", "setting": "[4]; 50 mg/kg", "value": "to a greater extent than atorvastatin"}, {"measurement": "HDL Percent Inhibition", "setting": "[4]; 50 mg/kg, 0 weeks", "value": 0, "unit": "%"}, {"measurement": "LDL Percent Inhibition", "setting": "[4]; 50 mg/kg, 0 weeks", "value": 0, "unit": "%"}, {"measurement": "VLDL Percent Inhibition", "setting": "[4]; 50 mg/kg, 0 weeks", "value": 0, "unit": "%"}, {"measurement": "HDL Percent Inhibition", "setting": "[4]; 50 mg/kg, 2 weeks", "value": 10, "unit": "%"}, {"measurement": "LDL Percent Inhibition", "setting": "[4]; 50 mg/kg, 2 weeks", "value": 40, "unit": "%"}, {"measurement": "VLDL Percent Inhibition", "setting": "[4]; 50 mg/kg, 2 weeks", "value": 40, "unit": "%"}, {"measurement": "HDL Percent Inhibition", "setting": "[4]; 50 mg/kg, 6 weeks", "value": 50, "unit": "%"}, {"measurement": "LDL Percent Inhibition", "setting": "[4]; 50 mg/kg, 6 weeks", "value": 90, "unit": "%"}, {"measurement": "VLDL Percent Inhibition", "setting": "[4]; 50 mg/kg, 6 weeks", "value": 15, "unit": "%"}, {"measurement": "CHOL Percent Change", "setting": "[5]; high fat fed C57BL/6 mice", "value": "−67", "unit": "%"}, {"measurement": "GLUC Percent Change", "setting": "[5]; high fat fed C57BL/6 mice", "value": "−28", "unit": "%"}, {"measurement": "Lipoproteins HDL Percent Change", "setting": "[5]; high fat fed C57BL/6 mice", "value": "−65", "unit": "%"}, {"measurement": "Lipoproteins LDL Percent Change", "setting": "[5]; high fat fed C57BL/6 mice", "value": "−87", "unit": "%"}, {"measurement": "Lipoproteins VLDL Percent Change", "setting": "[5]; high fat fed C57BL/6 mice", "value": "No"}, {"measurement": "TRIG Percent Change", "setting": "[5]; high fat fed C57BL/6 mice", "value": "No"}, {"measurement": "CHOL Percent Change", "setting": "[5]; lean C57BL/6 mice", "value": "−63", "unit": "%"}, {"measurement": "GLUC Percent Change", "setting": "[5]; lean C57BL/6 mice", "value": "No"}, {"measurement": "Lipoproteins HDL Percent Change", "setting": "[5]; lean C57BL/6 mice", "value": "−44", "unit": "%"}, {"measurement": "Lipoproteins LDL Percent Change", "setting": "[5]; lean C57BL/6 mice", "value": "−64", "unit": "%"}, {"measurement": "Lipoproteins VLDL Percent Change", "setting": "[5]; lean C57BL/6 mice", "value": "No"}, {"measurement": "TRIG Percent Change", "setting": "[5]; lean C57BL/6 mice", "value": "−34", "unit": "%"}]}]}
